# Patent US7056536B2, “Non-corrosive sterilant composition” (Ecolab Inc., priority 1998, dated 2006)
# System: Bacillus cereus spores
# Assay: Rate of Kill Antimicrobial Efficacy (SOP CB021-04), Formulas 1-8 with octanoic/peroctanoic acid, 40° C.
# Format: cell-based
# Conditions: on a weight basis
# Protocol: Ecolab Microbiological Services SOP CB021-04; Rate of Kill Antimicrobial Efficacy. Following exposure to the formula and subsequent neutralization, spores were heat shocked for 13 minutes at 80° C. before plating. [table]
smiles,measurement,value
"CCCCCCCC(=O)OO [peroctanoic acid, peroxyoctanoic acid]","effect on the sporicidal efficacy of 150 ppm POAA against B. cereus, compared with octanoic acid",greater effect
